In US20250325563A1, “METHODS FOR TREATING METABOLIC SYNDROME” (priority 2023, published 2025):

What was measured:
HFD-fed mice [1] = test: Visceral and subcutaneous fat volumes by MRI (Example 3); format: in vivo, C57BL/6J mice; conditions: 15 μg/kg i.p. twice a week for 16 weeks, n=5
Procedure: (§1) Mice were group-housed (4-5 mice per cage) on a proper temperature control of 24-26° C. with a 12 h light/dark cycle with food and water available ad libidum.
Abdominal area of animals was scanned for assessing visceral and subcutaneous fat loading by using magnetic resonance imaging system (MRI, Bruker BioSpin Group, Bruker Corporations, Germany) before experiment and then once a month during the experiment. The study procedure was conducted as follows: mice (n=5 per group) were anesthetized using isoflurane (1.5-2.5% in 1.5 l/min medical oxygen) and placed on a heated animal bed throughout the MRI procedure. Scans were performed using a 9.4T Bruker BioSpec 94/21 USR system connected to a 1H circular polarized transceiver coil and running Para Vision 6.0.1® software (Bruker BioSpin Group, Bruker Corporation, Germany). Respiration was monitored using a respiration pillow (SA Instruments Inc., Stony Brook, USA) and respiration rate was maintained at between 35-70 breaths per minute. Two orientation pilot scans were performed in order to establish the position of the animal and identify anatomical landmarks relevant for planning the subsequent scan. The final Tl-weighted Bruker: RARE sequence was performed using the following parameters: repetition time (TR) 1164 ms, echo time (TE) 6 ms, flip angle 90 degrees, number of averages 2, imaging matrix 320×320×40, spatial resolution 0.125×0.125×0.5 mm. Volumes were segmented manually by an observer blinded to the experiment using ITK-SNAP (V3.8.0). A 40× zoom was used to measure visceral and subcutaneous fat volume, and renal onset was the starting point for the fat volume analysis.

HFD-fed mice [2] = format: in vivo, C57BL/6J mice; conditions: 15 μg/kg i.p. twice a week for 16 weeks; for Epididymal fat, absolute organ weight / Epididymal fat, normalized organ weight (organ weight/body weight) / Liver, absolute organ weight / Liver, normalized organ weight (organ weight/body weight): mean ± SEM, n=10
Procedure: as §1

HFD-fed mice [3] = test: Blood metabolic markers in serum (Example 5); format: in vivo, C57BL/6J mice; conditions: for HDL in serum / LDL in serum / Total cholesterol in serum / Triglycerides in serum: 15 μg/kg i.p. twice a week, study week 16
Procedure: as §1
The mice were deeply anesthetized with a terminal dosage of phenobarbital (200-300 mg/kg)24 h after the last study treatment administration and the blood samples were collected from all groups of mice via cardiac puncture using a standardized protocol. Collected blood was allowed to coagulate before centrifugation at 2000×g for 20 min after which the serum was stored at −80° C. until the analysis.

[4] = Body weight of mice on daily i.p. administration for 6 days (Example 1); format: in vivo, C57BL/6J mice; conditions: for Mean body weight: N=10
Procedure: Two months old male C57BL/6J mice were housed (4-5 mice per cage) with food and water available ad libidum at a temperature control of 24-26° C. and a 12 h light/dark cycle. 3-4 days before the start of the study, the mice were randomized into 3 experimental groups (N=10 per group) using online randomization tool (Graph Pad, USA). Body weights of each animal were measured once a day during the entire study, their health conditions were assessed at the same time. Elocalcitol (100 μg/kg), vitamin D3 (cholecalciferol,100 μg/kg), or vehicle control were administrated intraperitoneally once a day for 6 days.

HFD-fed mice [5] = test: Prevention of total body weight gain in high-fat diet mice (Example 2); format: in vivo, C57BL/6J mice
Procedure: Mice were group-housed (4-5 mice per cage) on a proper temperature control of 24-26° C. with a 12 h light/dark cycle with food and water available ad libidum. […] Body weight was measured once a week and the amount of food and water consumed by the animals was measured once a month.

HFD-fed mice [6] = test: Glucose tolerance test (GTT); format: in vivo, C57BL/6J mice; conditions: glucose 2 g/kg i.p.; study week 16; 15 μg/kg i.p. twice a week
Procedure: as §1
(§2) For GTT, mice were fasted overnight for 10-12 h and blood glucose was measured from the tail blood using Accu-Chek Performa system glucose meter (Roche, Germany) and the baseline glucose values (0 min) were recorded. The animals were then injected intraperitoneally with glucose (2 g/kg) and after glucose injection the blood glucose was measured from tail blood according to this schedule: 15, 30, 60, 90, and 120 min.

HFD-fed mice [7] = test: Insulin tolerance test (ITT); format: in vivo, C57BL/6J mice; conditions: insulin 0,5 U/kg i.p.; study week 16; 15 μg/kg i.p. twice a week
Procedure: as §1
as §2, with “Insulin tolerance test (ITT) was performed at the end of the study (study week 16). For” for “For”, “ITT,” for “GTT,”, “fasted” for “fasted overnight”, “6” for “10-12”, “insulin (0,5 U/kg; diluted from 100 U/ml (Novorapid, Novo Nordisk A/S) with saline 0.9%)” for “glucose (2 g/kg)”

[8] = prolonged use; cited from earlier work
NF-κB = conditions: Penna et al., 2009; cited from earlier work
[9] = 15 μg/kg i.p. twice a week for 16 weeks
[10] = 100 μg/kg i.p. once a day for 6 days
[11] = admin. day 0 (administration start), 100 μg/kg i.p. once a day
[12] = admin. day 1, 100 μg/kg i.p. once a day
[13] = admin. day 2, 100 μg/kg i.p. once a day
[14] = admin. day 3, 100 μg/kg i.p. once a day
[15] = admin. day 4, 100 μg/kg i.p. once a day
[16] = admin. day 5, 100 μg/kg i.p. once a day
[17] = admin. day 6, 100 μg/kg i.p. once a day
[18] = admin. day −1, before administration start, 100 μg/kg group
[19] = admin. day −2, before administration start, 100 μg/kg group
[20] = admin. day −3, before administration start, 100 μg/kg group
[21] = admin. day −4, before administration start, 100 μg/kg group
[22] = day 7, after administration stopped on day 6
[23] = day 7, after administration stopped on day 6, 100 μg/kg i.p.
[24] = day 8, after administration stopped on day 6
[25] = day 8, after administration stopped on day 6, 100 μg/kg i.p.

In the case of C=C1/C(=C\C=C2/CCC[C@]3(C)[C@@H]([C@H](C)CCCC(C)(C)O)CC[C@@H]23)C[C@@H](O)C[C@@H]1O [1,25 (OH)2D3, 1,25-dihydroxycholecalciferol, reference compound], the “Subcutaneous fat level (MRI) compared to the HFD group” value (HFD-fed mice [1]) is reported as “no statistically significant effect”, the “Visceral fat level (MRI) compared to the HFD group” value (HFD-fed mice [1]) is reported as “no statistically significant effect” and the “Epididymal fat, absolute organ weight” value (HFD-fed mice [2]) is reported as 1874 mg. For the same compound, the “Epididymal fat, normalized organ weight (organ weight/body weight)” value (HFD-fed mice [2]) was 49.67 mg/g, the “Liver, absolute organ weight” value (HFD-fed mice [2]) was 1374 mg and the “Liver, normalized organ weight (organ weight/body weight)” value (HFD-fed mice [2]) was 36.03 mg/g. For the same compound, the “Effect on triglyceride levels” value (HFD-fed mice [3]; [9]) was “lowered the triglyceride levels similar to the ones in the LFD group”, the HDL in serum (HFD-fed mice [3]) was 3.57 mmol/L and the LDL in serum (HFD-fed mice [3]) was 0.82 mmol/L. The “Total cholesterol in serum” value (HFD-fed mice [3]) was 4.44 mmol/L and the Triglycerides in serum (HFD-fed mice [3]) was 0.68 mmol/L.
In the case of C=C1CC[C@H](O)C/C1=C/C=C1\CCC[C@]2(C)[C@@H]([C@H](C)CCCC(C)C)CC[C@@H]12 [Vitamin D3, cholecalciferol, reference compound], the Weight loss observed [4, 10] is reported as “No weight loss was observed”, the Mean body weight [4, 11] is reported as 23.80 g and the Weight change % [4, 12] is reported as −0.84%. For the same compound, the Mean body weight [4, 12] was 23.60 g, the Weight change % [4, 13] was “+0.84%” and the Mean body weight [4, 13] was 24.00 g. For the same compound, the Weight change % [4, 14] was 0%, the Mean body weight [4, 14] was 23.80 g and the Weight change % [4, 15] was “+0.84%”. The Mean body weight [4, 15] was 24.00 g, the Weight change % [4, 16] was “+1.68%” and the Mean body weight [4, 16] was 24.20 g. The Weight change % [4, 17] was “+2.52%”, the Mean body weight [4, 17] was 24.40 g and the Mean body weight [4, 18] was 23.70 g. For the same compound, the Mean body weight [4, 19] was 23.50 g, the Mean body weight [4, 20] was 23.50 g and the Mean body weight [4, 21] was 23.40 g. For the same compound, the Weight change % [4, 22] was “+2.94%”, the Mean body weight [4, 23] was 24.50 g and the Weight change % [4, 24] was “+3.78%”. It also gave a Mean body weight [4, 25] of 24.70 g.
In the case of C=C1/C(=C\C=C2/CCC[C@]3(C)C([C@@H](C)C/C=C/C(O)(CC)CC)=CC[C@@H]23)C[C@@H](O)C[C@@H]1F [elocalcitol], the “Average body weight after administration was stopped on Day 6” value [4, 10] is reported as “returned to normal within two days”, the Mean body weight [4, 11] is reported as 21.50 g and the Weight change % [4, 12] is reported as “+1.4%”. For the same compound, the Mean body weight [4, 12] was 21.80 g, the Weight change % [4, 13] was −1.4% and the Mean body weight [4, 13] was 21.20 g. The Weight change % [4, 14] was −5.58%, the Mean body weight [4, 14] was 20.30 g and the Weight change % [4, 15] was −10.7%. The Mean body weight [4, 15] was 19.20 g, the Weight change % [4, 16] was −14.42% and the Mean body weight [4, 16] was 18.40 g. For the same compound, the Weight change % [4, 17] was −18.6%, the Mean body weight [4, 17] was 17.50 g and the Mean body weight [4, 18] was 21.60 g. For the same compound, the Mean body weight [4, 19] was 21.70 g, the Mean body weight [4, 20] was 21.60 g and the Mean body weight [4, 21] was 21.40 g. The “Drop of average body weight” value ([4]; by treatment Day 4, 100 μg/kg i.p. once a day) was 10.7%, the “Average decrease in body weight” value ([4]; by treatment Day 6, 100 μg/kg i.p. once a day) was 18.6% and the Weight change % [4, 22] was −16.75%. It also gave a Mean body weight [4, 23] of 17.90 g, a Weight change % [4, 24] of −1.07% and a Mean body weight [4, 25] of 19.20 g. The “Study week at which inhibition of the HFD-induced weight gain reaches statistical significance” value (HFD-fed mice [5]; 15 μg/kg i.p. twice a week) was 7 study week, the “Lower relative weight gain compared to the vehicle treated HFD mice” value (HFD-fed mice [5]; 15 μg/kg i.p. twice a week for 16 weeks, study week 16) was 20% and the “Subcutaneous fat level (MRI) compared to the HFD group” value (HFD-fed mice [1]) was “significant decrease”. For the same compound, the “Visceral and subcutaneous fat relative to the LFD mice” value (HFD-fed mice [1]) was “reversed the visceral and subcutaneous fat of the HFD mice to the levels observed in the LFD mice”, the “Visceral fat level (MRI) compared to the HFD group” value (HFD-fed mice [1]) was “significant decrease” and the “Weights of epididymal fat deposits at the study end, group comparison” value (HFD-fed mice [2]) was “significantly lower than those in the HFD and HFD+vitD groups”. The “Epididymal fat, absolute organ weight” value (HFD-fed mice [2]) was 1312 mg, the “Epididymal fat, normalized organ weight (organ weight/body weight)” value (HFD-fed mice [2]) was 36.29 mg/g and the “Liver, absolute organ weight” value (HFD-fed mice [2]) was 1412 mg. For the same compound, the “Liver, normalized organ weight (organ weight/body weight)” value (HFD-fed mice [2]) was 39.45 mg/g, the “Glucose tolerance of the HFD-fed mice (glucose AUC analysis)” value (HFD-fed mice [6]) was “statistically significant improvement” and the “Increased insulin resistance observed in the HFD (insulin tolerance test)” value (HFD-fed mice [7]) was “reverses the increased insulin resistance observed in the HFD in a statistically significant manner”. The “Effect on cholesterol (the combined HDL and LDL)” value (HFD-fed mice [3]; [9]) was “statistically significant cholesterol (the combined HDL and LDL) lowering effect”, the “Effect on triglyceride levels” value (HFD-fed mice [3]; [9]) was “lowered the triglyceride levels similar to the ones in the LFD group” and the HDL in serum (HFD-fed mice [3]) was 2.99 mmol/L. The LDL in serum (HFD-fed mice [3]) was 0.73 mmol/L, the “Total cholesterol in serum” value (HFD-fed mice [3]) was 3.88 mmol/L and the Triglycerides in serum (HFD-fed mice [3]) was 0.87 mmol/L. The “Oral dose above which hypercalcemia may ensue” value [8] was “higher than 300 μg per day” and the NF-κB inhibition (NF-κB) was “inhibits NF-κB by blocking the nuclear translocation of the p65 subunit”.
